“And” between values parts separate entries of the source, which are not always exact repeats. Equal entries are not always repeated. Inconclusive results and toxic doses are left out.
System: L1210 leukemia ip in BDF1 mice, survival T/C
Assay: NCI In Vivo Anticancer Drug Screen. Data for tumor model L1210 Leukemia (intraperitoneal) in B6D2F1 (BDF1) mice
Details: endpoint: mean survival time, higher = longer survival
Procedure, shortened: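 In this screen, tumor-bearing mice given compound are compared to those given vehicle, and their survival values are reported as a treated-to-control quotient.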

[1] = dose: 3.12 mg/kg/injection, schedule: Q01DX009 (ip), vehicle: saline with Tween-80
[2] = dose: 100.0 mg/kg/injection, schedule: Q04DX003 (ip), vehicle: Klucel (hydroxypropylcellulose) (HPC)
[3] = dose: 200.0 mg/kg/injection, schedule: Q04DX003 (ip), vehicle: Klucel (hydroxypropylcellulose) (HPC)
[4] = dose: 400.0 mg/kg/injection, schedule: Q04DX003 (ip), vehicle: Klucel (hydroxypropylcellulose) (HPC)
[5] = dose: 50.0 mg/kg/injection, schedule: Q01DX001 (ip), vehicle: saline
[6] = dose: 100.0 mg/kg/injection, schedule: Q01DX001 (ip), vehicle: saline
[7] = dose: 200.0 mg/kg/injection, schedule: Q01DX001 (ip), vehicle: saline
[8] = dose: 400.0 mg/kg/injection, schedule: Q01DX001 (ip), vehicle: saline
[9] = dose: 100.0 mg/kg/injection, schedule: Q01DX001 (ip), vehicle: saline with Tween-80
[10] = dose: 200.0 mg/kg/injection, schedule: Q01DX001 (ip), vehicle: saline with Tween-80
[11] = dose: 400.0 mg/kg/injection, schedule: Q01DX001 (ip), vehicle: saline with Tween-80

## CN(C)N=Nc1ccccc1C(=O)NNC(N)=S
dose: 18.75 mg/kg/injection, schedule: Q01DX009 (ip), vehicle: Klucel (hydroxypropylcellulose) (HPC)
  T/C: 109 % of control
dose: 37.5 mg/kg/injection, schedule: Q01DX009 (ip), vehicle: Klucel (hydroxypropylcellulose) (HPC)
  T/C: 116 % of control
dose: 75.0 mg/kg/injection, schedule: Q01DX009 (ip), vehicle: Klucel (hydroxypropylcellulose) (HPC)
  T/C: 89 % of control

## CC(=Nc1cccnc1)c1ccccc1
dose: 15.0 mg/kg/injection, schedule: Q01DX001 (ip), vehicle: carboxymethylcellulose (CMC)
  T/C: 98 % of control
dose: 30.0 mg/kg/injection, schedule: Q01DX001 (ip), vehicle: carboxymethylcellulose (CMC)
  T/C: 97 % of control

## C1CCC2C[N-]CCC2C1.C1CCC2C[N-]CCC2C1.C1CCC2C[N-]CCC2C1.C1CCC2C[N-]CCC2C1.[Cl][Rh][Cl] (stereo unspecified)
dose: 0.5 mg/kg/injection, schedule: Q01DX009 (ip), vehicle: Klucel (hydroxypropylcellulose) (HPC)
  T/C: 101 % of control
dose: 1.0 mg/kg/injection, schedule: Q01DX009 (ip), vehicle: Klucel (hydroxypropylcellulose) (HPC)
  T/C: 108 % of control
dose: 2.0 mg/kg/injection, schedule: Q01DX009 (ip), vehicle: Klucel (hydroxypropylcellulose) (HPC)
  T/C: 110 % of control
dose: 2.0 mg/kg/injection, schedule: Q01DX009 (ip), vehicle: citric acid
  T/C: 92 % of control
[1]
  T/C: 105 % of control
dose: 3.12 mg/kg/injection, schedule: Q04DX003 (ip), vehicle: saline with Tween-80
  T/C: 105 % of control
dose: 4.0 mg/kg/injection, schedule: Q01DX009 (ip), vehicle: Klucel (hydroxypropylcellulose) (HPC)
  T/C: 103 % of control
dose: 6.25 mg/kg/injection, schedule: Q04DX003 (ip), vehicle: saline with Tween-80
  T/C: 108 % of control

## CC(C)(C)N1CCOCC1
dose: 25.0 mg/kg/injection, schedule: Q01DX009 (ip), vehicle: acetone
  T/C: 91 % of control
dose: 50.0 mg/kg/injection, schedule: Q01DX009 (ip), vehicle: acetone
  T/C: 92 % of control
dose: 100.0 mg/kg/injection, schedule: Q01DX009 (ip), vehicle: acetone
  T/C: 87 % of control

## CC(C)CNS(=O)(=O)c1ccc(Cl)c([N+](=O)[O-])c1
[2]
  T/C: 99 % of control
[3]
  T/C: 97 % of control
[4]
  T/C: 106 % of control

## C#CC(N)=O
dose: 3.0 mg/kg/injection, schedule: Q01DX009 (ip), vehicle: saline
  T/C: 100 % of control
dose: 6.0 mg/kg/injection, schedule: Q01DX009 (ip), vehicle: saline
  T/C: 96 % of control
dose: 12.0 mg/kg/injection, schedule: Q01DX009 (ip), vehicle: saline
  T/C: 94 % of control
dose: 25.0 mg/kg/injection, schedule: Q04DX003 (ip), vehicle: saline
  T/C: 107 % of control
dose: 50.0 mg/kg/injection, schedule: Q04DX003 (ip), vehicle: saline
  T/C: 106 % of control
dose: 75.0 mg/kg/injection, schedule: Q01DX001 (ip), vehicle: saline
  T/C: 107 % of control

## NC(=O)c1[nH]cnc1NN=NCCCl
dose: 0.37 mg/kg/injection, schedule: Q01DX009 (ip), vehicle: saline with Tween-80
  T/C: 165 % of control
dose: 0.75 mg/kg/injection, schedule: Q01DX001 (ip), vehicle: saline with Tween-80
  T/C: 106 % of control
dose: 0.75 mg/kg/injection, schedule: Q01DX009 (ip), vehicle: saline with Tween-80
  T/C: 119 % of control
dose: 1.5 mg/kg/injection, schedule: Q01DX009 (ip), vehicle: saline with Tween-80
  T/C: 122 % of control
dose: 3.0 mg/kg/injection, schedule: Q01DX009 (ip), vehicle: saline with Tween-80
  T/C: 173 % of control
[1]
  T/C: 172 % of control
dose: 4.0 mg/kg/injection, schedule: Q01DX009 (ip), vehicle: saline with Tween-80
  T/C: 156 % of control and 189 % of control
dose: 6.0 mg/kg/injection, schedule: Q01DX009 (ip), vehicle: saline with Tween-80
  T/C: 164 % of control and 240 % of control
dose: 6.25 mg/kg/injection, schedule: Q01DX009 (ip), vehicle: saline with Tween-80
  T/C: 258 % of control
dose: 9.0 mg/kg/injection, schedule: Q01DX009 (ip), vehicle: saline with Tween-80
  T/C: 191 % of control and 215 % of control
dose: 12.5 mg/kg/injection, schedule: Q01DX001 (ip), vehicle: saline with Tween-80
  T/C: 247 % of control
dose: 12.5 mg/kg/injection, schedule: Q01DX009 (ip), vehicle: saline with Tween-80
  T/C: 161 % of control
dose: 17.0 mg/kg/injection, schedule: Q01DX001 (ip), vehicle: saline with Tween-80
  T/C: 215 % of control and 229 % of control
dose: 25.0 mg/kg/injection, schedule: Q01DX001 (ip), vehicle: saline with Tween-80
  T/C: 207 % of control and 285 % of control and 313 % of control
dose: 25.0 mg/kg/injection, schedule: Q01DX009 (ip), vehicle: saline with Tween-80
  T/C: 91 % of control
dose: 37.0 mg/kg/injection, schedule: Q01DX001 (ip), vehicle: saline with Tween-80
  T/C: 171 % of control and 257 % of control
dose: 50.0 mg/kg/injection, schedule: Q01DX001 (ip), vehicle: saline with Tween-80
  T/C: 197 % of control

## NCCCC(=O)NCCCCCCNCCCCCCNC(=O)CCCN
[5]
  T/C: 98 % of control
[6]
  T/C: 104 % of control

## Cc1cccc(S(=O)(=O)F)c1
dose: 50.0 mg/kg/injection, schedule: Q01DX009 (ip), vehicle: saline with Tween-80
  T/C: 91 % of control
dose: 100.0 mg/kg/injection, schedule: Q01DX009 (ip), vehicle: saline with Tween-80
  T/C: 100 % of control
dose: 100.0 mg/kg/injection, schedule: Q04DX003 (ip), vehicle: acetone
  T/C: 101 % of control
dose: 200.0 mg/kg/injection, schedule: Q01DX009 (ip), vehicle: saline with Tween-80
  T/C: 88 % of control
dose: 200.0 mg/kg/injection, schedule: Q04DX003 (ip), vehicle: acetone
  T/C: 97 % of control

## C=CC(=O)N(C)OC
[6]
  T/C: 101 % of control
dose: 100.0 mg/kg/injection, schedule: Q04DX003 (ip), vehicle: saline
  T/C: 100 % of control
[7]
  T/C: 96 % of control
dose: 200.0 mg/kg/injection, schedule: Q04DX003 (ip), vehicle: saline
  T/C: 104 % of control
[8]
  T/C: 112 % of control
dose: 400.0 mg/kg/injection, schedule: Q04DX003 (ip), vehicle: saline
  T/C: 98 % of control

## CN=C(NC)NN
dose: 30.0 mg/kg/injection, schedule: Q01DX Z (ip), vehicle: methylcellulose (MC)
  T/C: 100 % of control
dose: 60.0 mg/kg/injection, schedule: Q01DX Z (ip), vehicle: methylcellulose (MC)
  T/C: 103 % of control
dose: 100.0 mg/kg/injection, schedule: Q04DX002 (ip), vehicle: saline with Tween-80
  T/C: 95 % of control
dose: 125.0 mg/kg/injection, schedule: Q01DX Z (oral), vehicle: methylcellulose (MC)
  T/C: 101 % of control
dose: 200.0 mg/kg/injection, schedule: Q04DX002 (ip), vehicle: saline with Tween-80
  T/C: 95 % of control
dose: 240.0 mg/kg/injection, schedule: Q01DX Z (ip), vehicle: methylcellulose (MC)
  T/C: 108 % of control
dose: 250.0 mg/kg/injection, schedule: Q01DX Z (oral), vehicle: methylcellulose (MC)
  T/C: 95 % of control
dose: 270.0 mg/kg/injection, schedule: Q01DX Z (ip), vehicle: saline
  T/C: 105 % of control
dose: 375.0 mg/kg/injection, schedule: Q01DX Z (ip), vehicle: methylcellulose (MC)
  T/C: 110 % of control
dose: 400.0 mg/kg/injection, schedule: Q04DX002 (ip), vehicle: saline with Tween-80
  T/C: 100 % of control
dose: 405.0 mg/kg/injection, schedule: Q01DX Z (ip), vehicle: saline
  T/C: 97 % of control
dose: 480.0 mg/kg/injection, schedule: Q01DX Z (ip), vehicle: methylcellulose (MC)
  T/C: 102 % of control
dose: 609.0 mg/kg/injection, schedule: Q01DX Z (ip), vehicle: saline
  T/C: 103 % of control

## Cc1ccccc1NC(=O)NCCc1ccccc1
dose: 100.0 mg/kg/injection, schedule: Q01DX009 (ip), vehicle: Klucel (hydroxypropylcellulose) (HPC)
  T/C: 93 % of control
[2]
  T/C: 88 % of control
dose: 200.0 mg/kg/injection, schedule: Q01DX009 (ip), vehicle: Klucel (hydroxypropylcellulose) (HPC)
  T/C: 91 % of control
[3]
  T/C: 93 % of control
dose: 400.0 mg/kg/injection, schedule: Q01DX009 (ip), vehicle: Klucel (hydroxypropylcellulose) (HPC)
  T/C: 98 % of control
[4]
  T/C: 90 % of control

## CC(=O)NC1CC(CO)C(O)C1O (stereo unspecified)
[6]
  T/C: 107 % of control
[7]
  T/C: 90 % of control
[8]
  T/C: 101 % of control

## CC1Cn2ccc(=O)nc2S1 (stereo unspecified)
[5]
  T/C: 112 % of control
[6]
  T/C: 110 % of control
[7]
  T/C: 105 % of control

## O=c1cc(-c2ccccc2)nc2ccccn12
[9]
  T/C: 101 % of control
[10]
  T/C: 101 % of control
[11]
  T/C: 95 % of control

## C1CCC(CCC(CCCC2CCCC2)CCC2CCCCC2)CC1
[9]
  T/C: 94 % of control
[10]
  T/C: 94 % of control
[11]
  T/C: 102 % of control

— PubChem BioAssay AID248 (DTP/NCI, 2004)
